For assay [1], the system named is betaine-homocysteine S-methyltransferase (Bmt). The experiment in a line: Methionine synthesis in vitro assay with purified Bmt. It counts as biochemical, P. inhibens. To be noted: 200 μM methyl group donor, 2 mM homocysteine, 30° C., 2 h, fluorometric. The procedure:
The expression plasmid pET29b encoding the bmt gene with a Strep-tag II peptide sequence fused to the N-terminus was purchased from Twist Biosciences. The methionine synthase gene mmuM from E. coli was PCR-amplified (Phusion High-Fidelity DNA polymerase, Thermo Scientific) and cloned into the pET29b vector using the CPEC technique (Quan J. & Tian J., 2009). Resulting clones were validated by sanger sequencing. E. coli BL21 electrocompetent cells were transformed with […] of the expression vectors, and cells were selected on LB agar plates containing 50 μg/ml kanamycin. Bacteria were grown in Tryptone Yeast extract Glucose (TYG) medium supplemented with 50 μg/ml kanamycin at 37° C. to mid-log phase (OD600 0.7). Then, cultures were induced with 0.2 mM of IPTG for 3 hours at 37° C. Bacteria were harvested by centrifugation (4,000 rpm for 15 min at 4° C.) and cells were resuspended in 20 mL of NP buffer (50 mM NaH2PO4, 300 mM NaCl, pH 8) and 100 μl of 10× Protease inhibitor (Sigma). […] The Protein concentration was determined with the Protein Assay Dye Reagent Concentrate (BioRad) following the manufacturer's instructions. […]
The methionine synthesis in vitro assay was based on the protocol of Ranocha et al., 2000. […] Methionine formation was measured from 20 μl of the in vitro reactions using the Fluorometric Methionine Assay Kit (Sigma; results depicted in FIG. 14). […]

Assay [2] deals with P. inhibens dmdA KO mutant. The experiment in a line: Lag phase shortening in dmdA knockout mutant. It is filed as cell-based, Phaeobacter inhibens. As for the experimental part: (§1) For creation of P. inhibens knockout cells, ˜1,000 bp regions upstream and downstream of the gene of interest were amplified by PCR (Phusion High-Fidelity DNA polymerase, Thermo Scientific), using primers that added homologous regions to gentamycin or kanamycin resistance markers. The fragments were assembled and cloned into the TOPOII vector (Invitrogen) using restriction-free cloning (Peleg Y. & Unger T., 2014), generating a knockout (KO) plasmid. P. inhibens electrocompetent cells (300 μl) were transformed with 10 μg of the constructed KO plasmid by a pulse of 1.8 kV (Bio Rad). Cells were selected on ½YTSS agar plates containing 30 μg/ml gentamycin or 150 μg/ml kanamycin. Successful knockouts in single cell clones were verified by PCR and sanger sequencing.
The inventors further sought to better understand why methyl groups shorten the bacterial lag phase. The inventors list at least three cellular scenarios which could explain the effect that methylated compounds have on the lag phase: (1) methyl groups might be a limiting resource; (2) methyl groups might act as a signal that triggers a cellular cascade, which culminates in lag phase shortening; and (3) methylated compounds could accumulate intracellularly and function as osmoprotectants and antioxidants. […]

The test system of assay [3] is methyl group metabolism pathway genes of P. inhibens. Nature of the assay: Lag phase transcriptome (dual RNA-sequencing) of DMSP-treated bacteria. It counts as cell-based, Phaeobacter inhibens. To be noted: 50 μM DMSP, within the first 15 min and 40 min of the lag phase, vs untreated. The procedure:
The bacterium P. inhibens DSM 17395 was co-cultivated with the alga Emiliania huxleyi CCMP3266 (purchased from Bigelow Laboratory for Ocean Sciences, East Boothbay, ME) to investigate the metabolic response of the bacterium in the presence of algae, compared to bacteria grown as pure culture with 2 mM glucose. The analysis was conducted using a dual RNA-Sequencing method adapted from Avraham et al. 2016. The adapted method was previously described by Sperfeld et al., 2021. […] The resulting gene expression data, together with data from public databases (BioCyc and KEGG), were used to reconstruct the methyl group metabolism in P. inhibens DSM 17395 (FIG. 1C). The same dual RNA-sequencing method was used to identify genes that are differentially expressed during the lag phase of P. inhibens pure cultures treated with 50 μM DMSP, compared to control cultures without added DMSP (FIGS. 10A, and 11A-11B).
To further elucidate the fate of methyl groups, the inventors analyzed the transcriptome of DMSP-treated P. inhibens bacteria during the lag phase, and compared it to untreated control cultures. […] To further establish that DMSP methyl groups are assimilated via the methionine cycle, the inventors measured the methionine synthesis activity in protein crude extracts of stationary bacterial cells, using a biochemical assay followed by LC/MS analysis. […]

In the next assay the test system is P. inhibens Δbmt mutant. Nature of the assay: Growth and lag phase shortening in Δbmt mutant. It counts as cell-based, Phaeobacter inhibens. To be noted: 2 μM DMSP, minimal media with or without 200 μM methionine. The procedure:
as §1

Molecules are shown by their SMILES.

For `C[S+](C)CCC(=O)[O-]` [DMSP, dimethylsulfoniopropionate], in assay [1], the “methionine formation with DMSP as methyl group donor” value was “catalyzes the production of methionine”. For the same molecule, the lag phase shortening result is given as “does not shorten the lag phase” in assay [2] and “did not induce lag phase shortening” with P. inhibens Δbmt mutant. The “expression of the methyl group metabolism pathway” value in assay [3] was “upregulated”.

Source of the values: patent US20260015574A1, “METHODS FOR SHORTENING LAG PHASE DURATION IN MICROORGANISMS” (YEDA RESEARCH AND DEVELOPMENT CO. LTD., priority 2022, published 2026).
